Data published in PubChem BioAssay (NCI).
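Where inhibition never reached the appropriate level, the endpoint shown equals the highest concentration tested. Otherwise, values were interpolated linearly from a five-concentration, 48-hour dose response in 96-well plates. GI50 marks 50% less growth. TGI marks complete inhibition of growth.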

Assays:
Assay in all cases: DTP human tumour cell line panel, 48 h
[1] = tested on: OVCAR-4 ovarian
[2] = tested on: SK-MEL-2 melanoma
[3] = tested on: HCT-15 colon
[4] = tested on: SN12C renal
[5] = tested on: M19-MEL melanoma
[6] = tested on: NCI-H23 lung
[7] = tested on: K-562 leukemia
[8] = tested on: SK-MEL-28 melanoma
[9] = tested on: MCF7 breast
[10] = tested on: UACC-257 melanoma

Structure (SMILES)	TGI [1] [µM]	TGI [2] [µM]	TGI [3] [µM]	TGI [4] [µM]	TGI [5] [µM]	TGI [6] [µM]	TGI [7] [µM]	TGI [8] [µM]	GI50 [1] [µM]	GI50 [2] [µM]	GI50 [3] [µM]	GI50 [9] [µM]	TGI [9] [µM]	GI50 [10] [µM]	TGI [10] [µM]	GI50 [4] [µM]	GI50 [6] [µM]	GI50 [7] [µM]	GI50 [8] [µM]
Cc1cc(NS(=O)(=O)c2ccc(Nc3c4ccccc4nc4c(C(=O)NCCN(C)C)ccc(Cl)c34)cc2)no1	17.6	19.7	19.5	16.8	16.9	16.1	21.2	16.1	–	–	–	–	–	–	–	–	–	–	–
COC(=O)C(C)N1C(=O)c2ccccc2I1OC(C)=O (stereo not drawn)	> 100	> 100	> 100	> 100	–	> 100	> 100	> 100	51.3	> 100	37.9	30.7	> 100	> 100	> 100	31.4	40.3	41.6	88
COc1cc(N=Nc2cccc(S(=O)(=O)O)c2)c(C)cc1N=Nc1ccc(/C=C/c2ccc(N=[N+]([O-])c3ccc(/C=C/c4ccc(N=Nc5cc(C)c(N=Nc6cccc(S(=O)(=O)O)c6)cc5OC)cc4)c(S(=O)(=O)O)c3)cc2S(=O)(=O)O)cc1	> 100	> 100	> 100	> 100	> 100	> 100	> 100	> 100	–	–	–	–	> 100	–	> 100	–	–	–	–
O=CNc1cccc2c3c([nH]c12)CCCCCC3	> 100	> 100	> 100	> 100	> 100	> 100	> 100	> 100	–	–	–	–	> 100	–	> 100	–	–	–	–
CCOC(=O)C1C(c2cc(OC)c(O)c(OC)c2)c2cc3c(cc2OC1(C)O)OCO3 (stereo not drawn)	> 100	> 100	> 100	> 100	> 100	> 100	> 100	> 100	–	–	–	–	–	–	> 100	–	–	–	–
CC(C)(C)OC(=O)NC(Cc1ccccc1)C(=O)N[C@H]1c2ccsc2/C(=N/O)[C@H]1O (stereo partly drawn)	> 100	> 100	> 100	> 100	–	> 100	> 100	–	–	–	–	–	> 100	–	> 100	–	–	–	–
C=C1C(=O)O[C@H]2C1[C@H](OC(=O)/C(C)=C\COC(C)=O)C[C@]1(CO1)[C@@H]1[C@H](O)[C@H]3O[C@@]3(C)[C@@H]12 (stereo partly drawn)	> 77.3	48.8	> 56.1	> 57.1	34.4	29.7	27	31.7	–	–	–	–	27.8	–	31.3	–	–	–	–
COc1ccc(C(=O)Cc2cc(OC)ccc2OC)cc1	> 100	> 100	> 100	> 100	> 100	> 100	> 100	–	–	–	–	–	–	–	> 100	–	–	–	–
CC(C)=CCN(N=O)c1ncnc2nc[nH]c12	> 100	–	–	> 100	–	> 100	> 100	> 100	–	–	–	–	> 100	–	> 100	–	–	–	–
